In article PMC9967700, “Metabolism-Guided Optimization of Tryptophanol-Derived Isoindolinone p53 Activators” (Pharmaceuticals, 2023):

Biological target: T1, wt p53 core domain (DNA Binding Domain; p53DBD; residues 94–312) (Homo sapiens, UniProt P04637)
T1 construct: residues 94–312; host or cells: E. coli BL21 (DE3)-[pLys-S]
Assay: Differential scanning fluorimetry (DSF) thermostability
Conditions: 13d 2.5 mM, MQ 2 mM; for Tm of the wt p53DBD: 5% DMSO, mean ± SD, three assays
Description: Expression of wt p53 core domain. The wt p53DBD was expressed in E. coli BL21 (DE3)-[pLys-S] in fusion with an N-terminal 21-residue tag containing the hexa-histidyl peptide (His6) and the thrombin recognition sequence, using the pET15b-based expression construct.
For protein expression 10 mL of an overnight (ON) culture was used to inoculate 1 L of LB medium supplemented with 1 mL of ampicillin 100 mg/mL and 1mL of zinc sulphate 100 mM. Culture medium was incubated at 37 °C, 140 rpm till an OD600nm of ~0.5. Protein expression was then induced by adding 0.5 mL of isopropyl β-D-1-thiogalactopyranoside (IPTG) 1M (Cfinal = 0.5 mM) and bacterial growth at 27 °C, 120 rpm ON. E. coli cells were pelleted by centrifugation for 10 min, 4000 rpm, at 4 °C. The cellular pellet was resuspended in 10 mL of Lysis buffer (Sodium phosphate 50 mM; NaCl 300 mM; glycerol 10%, pH 7.4) supplemented with 1mg/mL Lysozyme (Biochemica Applichem Panreac), 1 mM of phenylmethanesulfonyl fluoride (PMSF) (Merck), 5 µg of DNAse I (Panreac applichem) and 0.8% of Triton X-100 (Merck). After a first step of chemical lysis (30 min incubation, at 4 °C), cells were further disrupted by four cycles of sonication, at 4 °C, during 60 s at 50% duty free cycle on a Vibra Cell (Media Cibernetics). The lysate was subsequently cleared by centrifugation at 10,000 rpm, 40 min, at 4 °C and the supernatant containing the soluble proteins were collected.
Purification of human wt p53DBD and His6-tag removal. Immobilized Metal Affinity Chromatography (IMAC) was performed to purify the wt p53DBD using a nickel-nitrilotriacetic acid (Ni-NTA) agarose resin (QIAGEN). Briefly, 1 mL of Ni^2+ resin was pre-equilibrated using MilliQ water (3 × 1 mL) and Lysis buffer containing 10 mM imidazole (3 × 1 mL). The soluble fraction of cellular lysate was supplemented with 6.8 µL of β-mercaptoethanol and 33.2 µL of imidazole 3 M to obtain the final concentrations of […] and 10 mM, respectively. The lysate was added to the pre-equilibrated resin and protein binding was performed by incubation on an orbital shaker for one hour at 4 °C. The suspension was added to a 9 cm polypropylene conical column (Poly-Prep columns; BioRad) and protein purification was performed by gravity flow with an imidazole gradient consisting of three washing steps (2 × 5 mL of Lysis buffer, 20 mM imidazole; 2 × 5 mL of Lysis buffer, 50 mM imidazole; and 1 × 2.5 mL Lysis buffer, 75 mM imidazole) and an elution step with 5 × 500 µL of Lysis buffer, 250 mM imidazole. Protein eluted fractions were assessed by SDS-PAGE and Coomassie staining. Size exclusion chromatography was performed on the pooled protein eluted fractions, using an AKTA prime plus system (GE Healthcare) equipped with a UV detector (280 nm), a HiLoad 16/60, Superdex 200 prep grade column (GE Healthcare) and SEC buffer (25 mM potassium phosphate buffer, 150 mM NaCl, pH 7.5). The fractions corresponding to the wt p53DBD monomers were collected and treated with thrombin (8 units of thrombin/mg wt p53DBD). The thrombin cleavage was conducted for 18 h at rt at pH 7.4 in the assay buffer recommended by the supplier. Before and after digestion protein concentration was determined through Bradford method.
Thermostability of wt p53DBD core domain assessed by differential scanning fluorimetry (DSF). An amount of 5 μg of thrombin-cleaved wt p53DBD was incubated with testing compounds (2.5 mM) in 25 mM potassium phosphate buffer and 150 mM NaCl, pH 7.5 in a final volume of 50 µL containing 2 µL of 1 mM DTT or 1 mM TCEP to promote p53 core domain redox control, and Sypro Orange at 2.5x final concentration. The fluorescence was assessed on a C1000 Touch thermal cycler equipped with a CFX96 optical reaction module (BioRad) and the FRET channel (λexc 450–490 nm and λem 560–580 nm). Temperature was ramped from 20 to 90 °C with a rate of 0.2 °C/12 sec. The Tm values were calculated using Origin 8 Software. […]

T1 sequence (P04637 94-312): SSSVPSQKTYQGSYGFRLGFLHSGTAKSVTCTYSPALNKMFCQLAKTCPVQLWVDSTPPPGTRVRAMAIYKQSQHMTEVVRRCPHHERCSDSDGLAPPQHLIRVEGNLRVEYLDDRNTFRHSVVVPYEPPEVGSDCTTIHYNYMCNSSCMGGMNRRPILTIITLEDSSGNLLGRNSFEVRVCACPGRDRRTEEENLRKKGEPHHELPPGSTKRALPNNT

ΔTm of the wt p53DBD (DTT 1 mM): did not increase the wt p53DBD Tm
Tm of the wt p53DBD (DTT (1 mM)): 40.51 ± 0.09 °C
ΔTm at 2500 µM (TCEP 1 mM): 10.4 °C
ΔTm of the wt p53DBD (TCEP 1 mM): 10.4 °C
Tm of the wt p53DBD (TCEP (1 mM)): 51.38 ± 0.38 °C
Compound: CCCn1c(Br)c(C[C@H]2CO[C@]3(c4ccccc4)c4ccccc4C(=O)N23)c2ccccc21 [Compound 13d, (3S, 9bR)-3-((2-bromo-1-propyl-1H-indol-3-yl)methyl)-9b-phenyl-2,3-dihydrooxazolo[2,3-a]isoindol-5(9bH)-one]
